These results are taken from US6500613B1, “Pneumococcal surface proteins and uses thereof” (priority 1995, dated 2002).

In one series the test system is pspA. Nature of the series: Amplification of pspA by PCR with oligonucleotides as 5' primers and 3' primer LSM2 (Example 11). Set-up: species or system Streptococcus pneumoniae. The conditions noted are these: 5′ primer in combination with 3′-primer LSM2, 14 strains. On the procedure:
These oligonucleotides were synthesized by Oligos, Etc.
PCR was done with an MJ Research, Inc., Programmable Thermal Cycler (Watertown, Mass.), using approximately 10 ng of genomic pneumococcal DNA as template with designated 5′ and 3′ primer pairs. The sample was brought to a total volume of 50 μl containing a final concentration of 50 mM KCl, 10 mM Tris-HCl (pH 8.3), 1.5 mM MgCl2, 0.01% gelatin, 0.5 μM of each primer, 200 μM of each deoxynucleoside triphosphate, and 2.5 U of Taq DNA polymerase. The samples were denatured at 94° C. for 2 minutes and subjected to 10 cycles consisting of: 1 min at 94° C., 2 min at 50° C., and 3 min at 72° C., followed by 20 cycles of: 1 min at 94° C., 2 min at 60° C., and 3 min at 72° C. After 30 total cycles, the samples were held at 72° C. for an additional 5 min prior to cooling to 4° C. The amplicons were then analyzed by agarose gel electrophoresis.

Series [1] has as its system S. pneumoniae isolates MC25, MC26, MC27, MC28. In kind it is cell-based, Streptococcus pneumoniae.

Where two headings read alike, the source gives them in different places.

On to “LSM111 (DNA CCGGATCCAGCTCCTGCACCAAAAC; chemistry not given here)”, for which, in the series with pspA, the Amplified/Tested was 14/14 and the “Percent Amplified” value is recorded as 100%.
On to Penicillin, for which the “Penicillin MIC” value in series [1] (isolate MC25) came to 1 µg/mL; in series [1] (isolate MC26) it was 4 µg/mL; in series [1] (isolate MC27), 1 µg/mL; in series [1] (isolate MC28), 2 µg/mL.
